Results on 19 compounds are retold here after US6833456B2, “Indolyl-urea derivatives of thienopyridines useful as antiangiogenic agents, and methods for their use” (Agouron Pharmaceuticals, Inc., priority 2002, dated 2004).

Broadly, the pIC50 is the negative decadic logarithm of the IC50, by convention in mol/L. One may read the AUC as the area under the concentration-time curve, a measure of exposure.

Each structure is given as a SMILES string. pIC50: −log10 of the molar value. Values joined by “and” are separate entries in the source; they are usually repeats but may differ in a detail not shown here. Identical values can stand only once.

The target in one data set is T1, KDR (VEGFR2) (Homo sapiens, UniProt P35968).
T1 construct: expressed in transfected cells; host or cells: porcine aorta endothelial (PAE) cells
Put plainly: KDR (VEGFR2) phosphorylation in PAE-KDR cells assay. In kind it is cell-based. As to conditions: PAE cells overexpressing human KDR, VEGF stimulated; read-out: PAE KDR autophos IC50. A digest of the protocol: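 PAE cells overexpressing human KDR, serum-starved 16 h (0.1% FBS), treated with compound 1 h at 37° C (0.5% DMSO), then stimulated 8 min with 500 ng/ml VEGF plus 2 mM Na3VO4. Lysate KDR phosphotyrosine measured by capture ELISA (anti-pY HRP, 450 nm); IC50 by four-parameter fit.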

The subject of another data set is HUVEC. Put plainly: bFGF HUVEC proliferation. The format is cell-based, human. As to conditions: bFGF stimulated HUVEC.
The next data set can be described thus: Mouse PK assay. In kind it is in vivo, B6 female mice. To be noted: po; for AUC / Cmax: female, B6, mouse, plasma, 50 mg/kg; for Cmax: p.o., read-out: Mouse Cmax, po ng-h/mL. A digest of the protocol:
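Plasma levels were measured by HPLC with UV detection after acetonitrile precipitation, using extracted standards, in blood taken up to 4 h (0.5, 1, 2, 4 h) post-dose. Dosing: 50 mg/kg orally or intraperitoneally to two groups of four female B6 mice, vehicle PEG 400:acidified H2O 30:70 suspension.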

T1 sequence (P35968 20-1356): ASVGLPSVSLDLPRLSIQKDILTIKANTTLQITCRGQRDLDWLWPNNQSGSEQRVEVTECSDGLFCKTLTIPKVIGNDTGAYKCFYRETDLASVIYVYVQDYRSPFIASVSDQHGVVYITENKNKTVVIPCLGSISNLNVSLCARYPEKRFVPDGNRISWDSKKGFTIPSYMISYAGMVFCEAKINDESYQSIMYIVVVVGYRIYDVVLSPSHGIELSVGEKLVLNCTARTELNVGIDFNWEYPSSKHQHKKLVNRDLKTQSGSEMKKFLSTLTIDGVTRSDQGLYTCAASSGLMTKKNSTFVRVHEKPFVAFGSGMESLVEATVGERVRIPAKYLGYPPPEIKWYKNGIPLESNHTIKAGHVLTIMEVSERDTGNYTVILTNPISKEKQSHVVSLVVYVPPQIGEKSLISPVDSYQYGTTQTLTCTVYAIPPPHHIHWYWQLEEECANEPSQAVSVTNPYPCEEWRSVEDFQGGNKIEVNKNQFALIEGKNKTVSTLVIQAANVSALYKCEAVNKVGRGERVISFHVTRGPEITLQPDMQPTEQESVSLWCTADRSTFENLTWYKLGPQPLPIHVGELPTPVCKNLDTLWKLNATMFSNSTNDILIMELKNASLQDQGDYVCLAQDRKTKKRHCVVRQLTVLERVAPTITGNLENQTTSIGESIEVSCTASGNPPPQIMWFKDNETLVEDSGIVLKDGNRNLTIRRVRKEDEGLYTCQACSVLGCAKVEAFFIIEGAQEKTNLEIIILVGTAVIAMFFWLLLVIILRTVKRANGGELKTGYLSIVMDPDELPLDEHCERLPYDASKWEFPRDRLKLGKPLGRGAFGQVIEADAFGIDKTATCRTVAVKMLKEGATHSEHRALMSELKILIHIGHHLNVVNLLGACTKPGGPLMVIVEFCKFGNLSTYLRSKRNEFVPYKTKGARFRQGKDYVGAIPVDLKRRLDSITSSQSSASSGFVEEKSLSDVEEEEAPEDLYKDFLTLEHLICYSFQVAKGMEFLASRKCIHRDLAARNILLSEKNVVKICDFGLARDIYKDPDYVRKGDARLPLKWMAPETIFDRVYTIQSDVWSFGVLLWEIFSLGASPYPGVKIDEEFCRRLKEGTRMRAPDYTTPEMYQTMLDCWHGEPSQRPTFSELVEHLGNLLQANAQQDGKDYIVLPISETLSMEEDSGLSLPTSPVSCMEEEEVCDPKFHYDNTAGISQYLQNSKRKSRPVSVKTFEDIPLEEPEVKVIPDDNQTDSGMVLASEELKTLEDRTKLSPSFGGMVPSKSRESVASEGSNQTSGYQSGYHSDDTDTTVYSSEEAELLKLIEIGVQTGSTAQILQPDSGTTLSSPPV

In the case of `CNC(=O)n1c(C)cc2cc(Nc3ccnc4cc(C(=O)N5CCC[C@@H]5CO)sc34)ccc21` [Example 1a, 5-[2-(2R-Hydroxymethyl-pyrrolidine-1-carbonyl)-thieno[3,2-b]pyridin-7-ylamino]-2-methyl-indole-1-carboxylic acid methylamide], the pIC50 at KDR (VEGFR2) is 8.97. Besides, the pIC50 in the data set on HUVEC (Homo sapiens, HUVEC) is 7.23. Moreover, in “Mouse PK assay”, the AUC came out at 1020 ng·h/mL; the Cmax came to 526 ng/mL; the “Mouse Cmin, po” value amounted to 3 ng/mL.

With `CNC(=O)n1c(C)cc2cc(Nc3ccnc4cc(C(=O)N5CCC[C@@H]5COC)sc34)ccc21` [Example 1b, 5-[2-(2R-Methoxymethyl-pyrrolidine-1-carbonyl)-thieno[3,2-b]pyridin-7-ylamino]-2-methyl-indole-1-carboxylic acid methylamide], at KDR (VEGFR2), the pIC50 was 9.55 and 9.60. In the data set with HUVEC (Homo sapiens, HUVEC), the pIC50 was 7.10. Besides, in the data set “Mouse PK assay”, the exposure (AUC) stood at 78 ng·h/mL; the Cmax came out at 24 ng/mL; the “Mouse Cmin, po” value is listed as 5 ng/mL.

`Cc1cc2cc(Nc3ccnc4cc(C(=O)N5CCC[C@@H]5CO)sc34)ccc2n1C(=O)NC1CC1` [Example 1c, 5-[2-(2R-Hydroxymethyl-pyrrolidine-1-carbonyl)-thieno[3,2-b]pyridin-7-ylamino]-2-methyl-indole-1-carboxylic acid cyclopropylamide]: the pIC50 in the data set on HUVEC (Homo sapiens, HUVEC) was 6.80. In addition, in the data set “Mouse PK assay”, the AUC worked out at 616 ng·h/mL; the Cmax was 317 ng/mL; the “Mouse Cmin, po” value is recorded as 7 ng/mL.

Consider `CNC(=O)n1c(C)cc2cc(Nc3ccnc4cc(C(=O)N5CC[C@@H](OC)C5)sc34)ccc21` [Example 1l, 5-[2-(3R-Methoxy-pyrrolidine-1-carbonyl)-thieno[3,2-b]pyridin-7-ylamino]-2-methyl-indole-1-carboxylic acid methylamide], for which the pIC50 in the data set with HUVEC (Homo sapiens, HUVEC) is 8.21. In addition, in the data set “Mouse PK assay”, the AUC was 719 ng·h/mL; the Cmax is 504 ng/mL; the “Mouse Cmin, po” value amounted to 5 ng/mL.

The compound `Cc1cc2cc(Nc3ccnc4cc(-c5nccn5C)sc34)ccc2n1C(=O)NC1CC1` [Example 2d, 5-(2-[1-methyl-1H-imidazol-2-yl]thieno[3,2-b]pyridin-7-ylamino)-2-methylindole-1-carboxylic acid cyclopropylamide] showed a pIC50 in the data set on HUVEC (Homo sapiens, HUVEC) of 7.47. For the same compound, in the data set “Mouse PK assay”, the AUC was 457 ng·h/mL; the Cmax was determined as 411 ng/mL; the “Mouse Cmin, po” value was found to be 0 ng/mL.

Turning to `CNC(=O)n1c(C)cc2cc(Nc3ccnc4cc(-c5nc(C(C)(C)O)cs5)sc34)ccc21` [Example 3a, 5-{2-[4-(1-Hydroxy-1-methyl-ethyl)-thiazol-2-yl]-thieno[3,2-b]pyridin-7-ylamino}-2-methyl-indole-1-carboxylic acid methylamide], the pIC50 on KDR (VEGFR2) was 9.14 and 9.48 and 9.46. Moreover, in the data set “Mouse PK assay”, the AUC came to 10300 ng·h/mL; the Cmax came out at 3950 ng/mL; the “Mouse Cmin, po” value was found to be 408 ng/mL.

On to `Cc1cc2cc(Nc3ccnc4cc(-c5nc(C(C)(C)O)cs5)sc34)ccc2n1C(=O)NC1CC1` [Example 3b, 5-{2-[4-(1-Hydroxy-1-methyl-ethyl)-thiazol-2-yl]-thieno[3,2-b]pyridin-7-ylamino}-2-methyl-indole-1-carboxylic acid cyclopropylamide], for which the pIC50 on KDR (VEGFR2) was 9.49 and 9.35. In addition, in “Mouse PK assay”, the AUC was 18800 ng·h/mL; the Cmax worked out at 11100 ng/mL; the “Mouse Cmin, po” value is 252 ng/mL.

With `CNC(=O)n1c(C)cc2cc(Oc3ccnc4cc(C(=O)N5CCC[C@H]5COC)sc34)ccc21` [Example 4a, 5-(2-[(S)-2-(methoxymethyl)pyrrolidine-1-carbonyl]thieno[3,2-b]pyridin-7-yloxy)-2-methylindole-1-carboxylic acid methylamide], the pIC50 in the data set on HUVEC (Homo sapiens, HUVEC) was 7.48. The compound further gave a pIC50 in the data set with HUVEC of 7.47. In “Mouse PK assay”, the AUC amounted to 703 ng·h/mL; the Cmax was found to be 575 ng/mL; the “Mouse Cmin, po” value came out at 3 ng/mL.

As for `COC[C@@H]1CCCN1C(=O)c1cc2nccc(Oc3ccc4c(c3)cc(C)n4C(=O)NCC#CCO)c2s1` [Example 4d, 5-(2-[(S)-2-(methoxymethyl)pyrrolidine-1-carbonyl]thieno[3,2-b]pyridin-7-yloxy)-2-methylindole-1-carboxylic acid (4-hydroxybut-2-ynyl)amide], at KDR (VEGFR2), the pIC50 was 9.43 and 9.59 and 9.26. In the data set “Mouse PK assay”, the AUC was determined as 4060 ng·h/mL; the Cmax worked out at 1960 ng/mL; the “Mouse Cmin, po” value is listed as 54 ng/mL.

Regarding `CNC(=O)n1c(C)cc2cc(Oc3ccnc4cc(C(=O)N5CCC[C@@H]5COC)sc34)ccc21` [Example 4e, 5-[2-(2R-Methoxymethyl-pyrrolidine-1-carbonyl)-thieno[3,2-b]pyridin-7-yloxy]-2-methyl-indole-1-carboxylic acid methylamide], the pIC50 in the data set on HUVEC (Homo sapiens, HUVEC) is 7.85. For the same compound, in “Mouse PK assay”, the exposure (AUC) was found to be 5540 ng·h/mL; the Cmax is 3790 ng/mL; the “Mouse Cmin, po” value is on record as 23 ng/mL.

As for `C#CCNC(=O)n1c(C)cc2cc(Oc3ccnc4cc(C(=O)N5CC[C@H](OC)C5)sc34)ccc21` [Example 4f, 5-[2-(3S-Methoxy-pyrrolidine-1-carbonyl)-thieno[3,2-b]pyridin-7-yloxy]-2-methyl-indole-1-carboxylic acid prop-2-ynylamide], the pIC50 at KDR (VEGFR2) is 9.83. For the same compound, in “Mouse PK assay”, the AUC turned out to be 15600 ng·h/mL; the Cmax came out at 8840 ng/mL; the “Mouse Cmin, po” value is 112 ng/mL.

As to `CNC(=O)n1c(C)cc2cc(Oc3ccnc4cc(C(=O)N5CC[C@H](OC)C5)sc34)ccc21` [Example 4g, 5-[2-(3S-Methoxy-pyrrolidine-1-carbonyl)-thieno[3,2-b]pyridin-7-yloxy]-2-methyl-indole-1-carboxylic acid methylamide], at KDR (VEGFR2), the pIC50 was 9.24 and 9.01. In the data set “Mouse PK assay”, the AUC stood at 3620 ng·h/mL; the Cmax was found to be 2280 ng/mL; the “Mouse Cmin, po” value came to 20 ng/mL.

`CO[C@H]1CCN(C(=O)c2cc3nccc(Oc4ccc5c(c4)cc(C)n5C(=O)NC4CC4)c3s2)C1` [Example 4h, 5-[2-(3S-Methoxy-pyrrolidine-1-carbonyl)-thieno[3,2-b]pyridin-7-yloxy]-2-methyl-indole-1-carboxylic acid cyclopropylamide]: the pIC50 on KDR (VEGFR2) is 9.94 and 9.47 and 9.68. Further, in “Mouse PK assay”, the AUC came to 2600 ng·h/mL; the Cmax is 657 ng/mL; the “Mouse Cmin, po” value came out at 161 ng/mL.

On to `C#CCNC(=O)n1c(C)cc2cc(Oc3ccnc4cc(C(=O)N5CC[C@@H](OC)C5)sc34)ccc21` [Example 4l, 5-[2-(3R-Methoxy-pyrrolidine-1-carbonyl)-thieno[3,2-b]pyridin-7-yloxy]-2-methyl-indole-1-carboxylic acid prop-2-ynylamide], for which the pIC50 at KDR (VEGFR2) was 10.05. Further, in the data set “Mouse PK assay”, the AUC is 321000 ng·h/mL; the Cmax turned out to be 11300 ng/mL; the “Mouse Cmin, po” value was 9020 ng/mL.

For `CNC(=O)n1c(C)cc2cc(Oc3ccnc4cc(C(=O)N5CC[C@@H](O)C5)sc34)ccc21` [Example 4n, 5-[2-(3R-Hydroxy-pyrrolidine-1-carbonyl)-thieno[3,2-b]pyridin-7-yloxy]-2-methyl-indole-1-carboxylic acid methylamide], the pIC50 at KDR (VEGFR2) is 9.46 and 9.80 and 9.78. In “Mouse PK assay”, the AUC was found to be 1850 ng·h/mL; the Cmax turned out to be 1110 ng/mL; the “Mouse Cmin, po” value came to 45 ng/mL.

Consider `Cc1cc2cc(Oc3ccnc4cc(C(=O)N5CC[C@@H](O)C5)sc34)ccc2n1C(=O)NC1CC1` [Example 4p, 5-[2-(3R-Hydroxy-pyrrolidine-1-carbonyl)-thieno[3,2-b]pyridin-7-yloxy]-2-methyl-indole-1-carboxylic acid cyclopropylamide], for which the pIC50 at KDR (VEGFR2) is 9.66. Moreover, in “Mouse PK assay”, the AUC is 4630 ng·h/mL; the Cmax was 2710 ng/mL; the “Mouse Cmin, po” value turned out to be 68 ng/mL.

In the case of `C#CCNC(=O)n1c(C)cc2c(F)c(Oc3ccnc4cc(C(=O)N5CCC[C@H]5CO)sc34)ccc21` [Example 5e, 4-Fluoro-5-[2-(2S-hydroxymethyl-pyrrolidine-1-carbonyl)-thieno[3,2-b]pyridin-7-yloxy]-2-methyl-indole-1-carboxylic acid prop-2-ynylamide], at KDR (VEGFR2), the pIC50 is 9.59 and 9.28 and 9.63. Besides, in “Mouse PK assay”, the AUC was 1960 ng·h/mL; the Cmax stood at 1100 ng/mL; the “Mouse Cmin, po” value came to 19 ng/mL.

For `C#CCNC(=O)n1c(C)c(Cl)c2c(F)c(Oc3ccnc4cc(C(=O)N5CC[C@H](O)C5)sc34)ccc21` [Example 6d, 3-Chloro-4-fluoro-5-[2-(3S-hydroxy-pyrrolidine-1-carbonyl)-thieno[3,2-b]pyridin-7-yloxy]-2-methyl-indole-1-carboxylic acid prop-2-ynylamide], the pIC50 at KDR (VEGFR2) is 9.91 and 9.51. Further, in “Mouse PK assay”, the AUC turned out to be 1630 ng·h/mL; the Cmax was found to be 302 ng/mL; the “Mouse Cmin, po” value stood at 125 ng/mL.

Regarding `Cc1cc2cc(Oc3ccnc4cc(C(=O)N5CC[C@H](O)C5)sc34)ccc2n1C(=O)NCCO` [Example 9k, 5-[2-(3S-Hydroxy-pyrrolidine-1-carbonyl)-thieno[3,2-b]pyridin-7-yloxy]-2-methyl-indole-1-carboxylic acid (2-hydroxy-ethyl)-amide], the pIC50 on KDR (VEGFR2) was 9.00. For the same compound, in “Mouse PK assay”, the AUC was determined as 1100 ng·h/mL; the Cmax was determined as 371 ng/mL; the “Mouse Cmin, po” value was 43 ng/mL.
